Test results published in patent publication US20200291018A1, “TAM KINASE INHIBITORS” (SYROS PHARMACEUTICALS, INC., priority 2017, published 2020).

Tests used:
AXL = target: T1, AXL (Homo sapiens, UniProt P30530); assay: TR-FRET kinase activity assay, AXL; assay type: biochemical; settings: ATP at Km, 60 minutes
T1 sequence (P30530 26-894): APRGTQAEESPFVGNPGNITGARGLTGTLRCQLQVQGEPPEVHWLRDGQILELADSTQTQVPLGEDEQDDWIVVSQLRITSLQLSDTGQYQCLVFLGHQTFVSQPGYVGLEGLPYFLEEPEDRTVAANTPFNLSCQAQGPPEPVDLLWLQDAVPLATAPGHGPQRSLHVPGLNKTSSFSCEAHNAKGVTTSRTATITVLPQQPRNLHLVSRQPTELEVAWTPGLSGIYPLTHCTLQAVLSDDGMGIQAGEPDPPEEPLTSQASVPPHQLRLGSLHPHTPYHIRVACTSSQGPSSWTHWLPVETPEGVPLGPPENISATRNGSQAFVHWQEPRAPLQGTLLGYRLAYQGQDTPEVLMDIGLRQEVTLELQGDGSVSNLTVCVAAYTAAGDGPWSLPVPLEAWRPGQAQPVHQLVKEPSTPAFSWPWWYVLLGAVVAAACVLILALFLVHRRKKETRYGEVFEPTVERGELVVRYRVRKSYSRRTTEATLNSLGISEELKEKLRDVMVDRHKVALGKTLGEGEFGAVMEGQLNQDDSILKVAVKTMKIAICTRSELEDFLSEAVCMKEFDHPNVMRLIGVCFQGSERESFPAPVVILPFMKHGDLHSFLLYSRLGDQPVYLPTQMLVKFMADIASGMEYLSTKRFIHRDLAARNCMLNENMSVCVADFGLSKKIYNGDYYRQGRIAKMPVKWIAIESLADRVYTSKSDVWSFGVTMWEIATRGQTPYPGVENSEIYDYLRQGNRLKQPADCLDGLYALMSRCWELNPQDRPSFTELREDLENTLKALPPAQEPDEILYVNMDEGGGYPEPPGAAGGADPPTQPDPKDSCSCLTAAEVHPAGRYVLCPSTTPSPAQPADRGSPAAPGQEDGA
Procedure, shortened: (§1)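 IC50 came from TR-FRET signal after 30 min dark development with a Europium-labeled phospho-specific antibody. This followed a 60 min RT reaction, stopped with EDTA, started with ATP at Km per enzyme. Peptide substrate, enzyme and compound were premixed in HEPES pH 7.5 buffer with MgCl2, EGTA, Brij 35 and DTT.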

FLT3 = target: T2, FLT3 (Homo sapiens, UniProt P36888); assay: TR-FRET kinase activity assay, FLT3; assay type: biochemical; settings: ATP at Km, 60 minutes
T2 sequence (P36888 27-993): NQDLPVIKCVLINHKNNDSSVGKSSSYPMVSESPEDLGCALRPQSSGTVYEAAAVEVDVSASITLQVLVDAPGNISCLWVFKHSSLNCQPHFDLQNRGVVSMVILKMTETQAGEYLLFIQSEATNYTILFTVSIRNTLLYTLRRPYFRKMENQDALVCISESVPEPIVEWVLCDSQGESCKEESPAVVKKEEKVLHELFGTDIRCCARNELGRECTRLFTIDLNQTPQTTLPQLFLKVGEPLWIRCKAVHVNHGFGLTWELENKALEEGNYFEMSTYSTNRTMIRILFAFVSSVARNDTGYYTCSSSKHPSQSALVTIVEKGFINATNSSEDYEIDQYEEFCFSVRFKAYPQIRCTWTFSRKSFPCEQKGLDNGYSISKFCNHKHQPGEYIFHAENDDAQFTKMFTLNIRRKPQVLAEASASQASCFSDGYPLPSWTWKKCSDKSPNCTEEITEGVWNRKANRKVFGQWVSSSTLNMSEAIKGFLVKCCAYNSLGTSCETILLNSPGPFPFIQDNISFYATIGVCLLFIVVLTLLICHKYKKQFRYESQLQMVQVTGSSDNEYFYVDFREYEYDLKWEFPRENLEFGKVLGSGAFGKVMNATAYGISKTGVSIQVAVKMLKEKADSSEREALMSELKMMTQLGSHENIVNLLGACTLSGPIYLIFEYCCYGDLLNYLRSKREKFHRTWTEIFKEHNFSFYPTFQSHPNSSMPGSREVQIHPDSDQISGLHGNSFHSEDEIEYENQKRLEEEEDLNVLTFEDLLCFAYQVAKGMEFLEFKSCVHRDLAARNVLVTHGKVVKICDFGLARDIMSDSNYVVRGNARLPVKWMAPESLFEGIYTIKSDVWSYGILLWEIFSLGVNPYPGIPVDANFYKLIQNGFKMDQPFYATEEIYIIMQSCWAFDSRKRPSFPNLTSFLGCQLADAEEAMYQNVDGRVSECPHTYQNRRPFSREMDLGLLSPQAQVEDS
Procedure, shortened: as §1

| Compound | IC50 (AXL) | IC50 (FLT3) |
| --- | --- | --- |
| COC[C@H](C)Nc1ncc2c(OC3CCOCC3)ncc([C@H]3CC[C@H](NS(C)(=O)=O)CC3)c2n1 [Compound 316] | 1000 to 10000 nM | 1000 to 10000 nM |
| CNS(=O)(=O)N[C@H]1CC[C@H](c2cnc(OC3CCOCC3)c3cnc(N[C@@H](C)COC)nc32)CC1 [Compound 317] | 1000 to 10000 nM | > 10000 nM |
| CC(C)Nc1ncc2c(OC3CCOCC3)ncc(-c3cccc(S(=O)(=O)C(C)C)c3)c2n1 [Compound 318] | 100 to 1000 nM | 1000 to 10000 nM |
| COC[C@H](C)Nc1ncc2c(OC3CCOCC3)ncc(-c3ccc(CC#N)cc3)c2n1 [Compound 319] | 100 to 1000 nM | 1000 to 10000 nM |
| COC[C@H](C)Nc1ncc2c(OC3CCOCC3)ncc(-c3cccc(C#N)c3)c2n1 [Compound 320] | 1000 to 10000 nM | 1000 to 10000 nM |
| CC[C@H](C)Nc1ncc2c(O[C@H]3CC[C@H](N)CC3)ncc([C@H]3CC[C@H](O)CC3)c2n1 [Compound 321] | ≤ 100 nM | 100 to 1000 nM |
| CN(C)S(=O)(=O)c1cccc(-c2cnc(OC3CCOCC3)c3cnc(NC4(C)CC4)nc23)c1 [Compound 322] | 100 to 1000 nM | 100 to 1000 nM |
| CN1C[C@H](Nc2ncc3c(OC4CCOCC4)ncc([C@H]4CC[C@H](O)CC4)c3n2)CC1=O [Compound 323] | 1000 to 10000 nM | 1000 to 10000 nM |
| CN1C[C@@H](Nc2ncc3c(OC4CCOCC4)ncc([C@H]4CC[C@H](O)CC4)c3n2)CC1=O [Compound 324] | 1000 to 10000 nM | 1000 to 10000 nM |
| COC[C@H](C)Nc1ncc2c(OC3CCOCC3)ncc(-c3cccc(C(N)=O)c3)c2n1 [Compound 325] | 1000 to 10000 nM | 1000 to 10000 nM |
| COC[C@H](C)Nc1ncc2c(OC3CCOCC3)ncc([C@H]3CCCNC3)c2n1 [Compound 326] | 100 to 1000 nM | ≤ 100 nM |
| COC[C@H](C)Nc1ncc2c(OC3CCOCC3)ncc([C@@H]3CCCNC3)c2n1 [Compound 327] | 1000 to 10000 nM | 1000 to 10000 nM |
| COC[C@H](C)Nc1ncc2c(OC3CCOCC3)ncc(-c3cccc(S(N)(=O)=O)c3)c2n1 [Compound 328] | 1000 to 10000 nM | 1000 to 10000 nM |
| COC[C@H](C)Nc1ncc2c(OC3CCOCC3)ncc([C@H]3CC[C@@](O)(C(F)(F)F)CC3)c2n1 [Compound 329] | 100 to 1000 nM | 1000 to 10000 nM |
| COC[C@H](C)Nc1ncc2c(OC3CCOCC3)ncc([C@H]3CC[C@](O)(C(F)(F)F)CC3)c2n1 [Compound 330] | 1000 to 10000 nM | 1000 to 10000 nM |
| N#Cc1ccc(Nc2ncc3c(OC4CCNCC4)ncc([C@H]4CC[C@H](O)CC4)c3n2)cc1 [Compound 331] | ≤ 100 nM | ≤ 100 nM |
| COC[C@H](C)Nc1ncc2c(OC3CCOCC3)ncc([C@H]3CCCN(C)C3)c2n1 [Compound 332] | 1000 to 10000 nM | 1000 to 10000 nM |
| COC[C@H](C)Nc1ncc2c(OC3CCOCC3)ncc([C@@H]3CCCN(C)C3)c2n1 [Compound 333] | 1000 to 10000 nM | 1000 to 10000 nM |
| COC[C@H](C)Nc1ncc2c(OC3CCOCC3)ncc(-c3cnn([C@H]4CCN(C)C4)c3)c2n1 [Compound 334] | 1000 to 10000 nM | 1000 to 10000 nM |

| Compound | IC50 (AXL) | IC50 (FLT3) |
| --- | --- | --- |
| COC[C@H](C)Nc1ncc2c(OC3CCOCC3)ncc(-c3ccc(CO)cc3)c2n1 [Compound 335] | 1000 to 10000 nM | 1000 to 10000 nM |
| O[C@H]1CC[C@H](c2cnc(OC3CCOCC3)c3cnc(N[C@H]4CCC(F)(F)C4)nc32)CC1 [Compound 336] | 100 to 1000 nM | 100 to 1000 nM |
| COC[C@H](C)Nc1ncc2c(OC3CCOCC3)ncc(-c3ccc(N)nc3)c2n1 [Compound 337] | 1000 to 10000 nM | 1000 to 10000 nM |
| C[C@H](CC(F)(F)F)Nc1ncc2c(OC3CCOCC3)ncc([C@H]3CC[C@H](O)CC3)c2n1 [Compound 338] | 1000 to 10000 nM | 1000 to 10000 nM |
| CCC1(Nc2ncc3c(OC4CCOCC4)ncc([C@H]4CC[C@H](O)CC4)c3n2)CC1 [Compound 339] | 100 to 1000 nM | 1000 to 10000 nM |
| CNC(=O)N[C@H]1CC[C@H](c2cnc(OC3CCOCC3)c3cnc(N[C@@H](C)COC)nc32)CC1 [Compound 340] | 1000 to 10000 nM | 1000 to 10000 nM |
| CNS(=O)(=O)N1CCC(c2cnc(OC3CCOCC3)c3cnc(N[C@@H](C)COC)nc23)CC1 [Compound 341] | 1000 to 10000 nM | 1000 to 10000 nM |
| COC[C@H](C)Nc1ncc2c(OC3CCOCC3)ncc(-c3ccnnc3)c2n1 [Compound 342] | 1000 to 10000 nM | 1000 to 10000 nM |
| COC[C@H](C)Nc1ncc2c(OC3C[C@H]4CC[C@@H](C3)N4C)ncc([C@H]3CC[C@H](O)CC3)c2n1 (stereo partly shown) [Compound 343] | 100 to 1000 nM | 1000 to 10000 nM |
| COC[C@H](C)Nc1ncc2c(OC3CCN(c4ncccn4)CC3)ncc([C@H]3CC[C@H](O)CC3)c2n1 [Compound 344] | 100 to 1000 nM | 1000 to 10000 nM |
| CNC(=O)N1CCC(c2cnc(OC3CCOCC3)c3cnc(N[C@@H](C)COC)nc23)CC1 [Compound 345] | 1000 to 10000 nM | 1000 to 10000 nM |
| COC[C@H](C)Nc1ncc2c(OC3CCOCC3)ncc(C3CCCCN3)c2n1 (stereo partly shown) [Compound 346] | 1000 to 10000 nM | 1000 to 10000 nM |
| COC[C@H](C)Nc1ncc2c(OC3CCOCC3)ncc(-c3cn[nH]c3)c2n1 [Compound 347] | 1000 to 10000 nM | 100 to 1000 nM |
| COC[C@H](C)Nc1ncc2c(C3CC3)ncc([C@H]3CC[C@H](O)CC3)c2n1 [Compound 349] | 100 to 1000 nM | 1000 to 10000 nM |
| COC[C@H](C)Nc1ncc2c(OC3CCOCC3)ncc(C3CCCCN3C)c2n1 (stereo partly shown) [Compound 350] | 1000 to 10000 nM | 1000 to 10000 nM |
| COC[C@@H](C)Nc1ncc2c(OC3CC(O)C3)ncc([C@H]3CC[C@H](O)CC3)c2n1 (stereo partly shown) [Compound 351] | 1000 to 10000 nM | 1000 to 10000 nM |
| C[C@@H](CC(F)(F)F)Nc1ncc2c(OC3CCN(C)CC3)ncc([C@H]3CC[C@H](O)CC3)c2n1 [Compound 352] | 100 to 1000 nM | 1000 to 10000 nM |
| O=C(O)[C@H]1CC[C@@H](Nc2ncc3c(OC4CCOCC4)ncc([C@H]4CC[C@H](O)CC4)c3n2)CC1 [Compound 353] | 1000 to 10000 nM | 1000 to 10000 nM |
| COC[C@H](C)Nc1ncc2c(O[C@@H]3CCOC3)ncc([C@H]3CC[C@H](O)CC3)c2n1 [Compound 354] | 1000 to 10000 nM | 1000 to 10000 nM |
